Assay results taken from PubChem BioAssay AID588805 (The Scripps Research Institute Molecular Screening Center, 2011).
Active and inactive are the calls of the source. How the calls were made is not given here.

Key:
Assay in all cases: ABHD10 inhibitor selectivity across serine hydrolases, late-stage follow-up, selectivity assay for PME-1 inhibitor project, cell-based, LC-MS/MS, ABPP-SILAC (AID 588805)
Acot7 = conditions: serine hydrolase panel, active compounds read low
Pnpla8 = conditions: serine hydrolase panel, active compounds read low
Pafah1b2 = conditions: serine hydrolase panel, active compounds read low
Htra2 = conditions: serine hydrolase panel, active compounds read low
Prepl = conditions: serine hydrolase panel, active compounds read low
Acot9 = conditions: serine hydrolase panel, active compounds read low
Fam108b1 = conditions: serine hydrolase panel, active compounds read low
Fam108a = conditions: serine hydrolase panel, active compounds read low
Pgap1 = conditions: serine hydrolase panel, active compounds read low
Lipe = conditions: serine hydrolase panel, active compounds read low
Sec23ip = conditions: serine hydrolase panel, active compounds read low
Acot2 = conditions: serine hydrolase panel, active compounds read low
Abhd11 = conditions: serine hydrolase panel, active compounds read low
Nceh1 = conditions: serine hydrolase panel, active compounds read low
Serhl = conditions: serine hydrolase panel, active compounds read low
Lyplal1 = conditions: serine hydrolase panel, active compounds read low
Lactb = conditions: serine hydrolase panel, active compounds read low
[1] = molecular target: Palmitoyl-protein thioesterase ABHD10, mitochondrial (Mus musculus) (UniProt Q6PE15); conditions: serine hydrolase panel, active compounds read low
Palmitoyl-protein thioesterase ABHD10, mitochondrial (Mus musculus), sequence (Q6PE15 whole entry, looked up): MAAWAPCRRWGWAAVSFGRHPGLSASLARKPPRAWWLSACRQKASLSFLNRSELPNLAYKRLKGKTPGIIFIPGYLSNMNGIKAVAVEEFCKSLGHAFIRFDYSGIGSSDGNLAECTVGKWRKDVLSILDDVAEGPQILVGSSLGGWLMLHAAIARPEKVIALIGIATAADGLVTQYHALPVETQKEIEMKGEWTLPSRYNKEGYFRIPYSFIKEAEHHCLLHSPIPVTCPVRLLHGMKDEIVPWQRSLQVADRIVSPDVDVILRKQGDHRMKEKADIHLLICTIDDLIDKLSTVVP

Faah = conditions: serine hydrolase panel, active compounds read low
Pafah1b3 = conditions: serine hydrolase panel, active compounds read low
[2] = molecular target: Diacylglycerol lipase-beta (Mus musculus) (UniProt Q91WC9); conditions: serine hydrolase panel, Daglb, active compounds read low
Diacylglycerol lipase-beta (Mus musculus), sequence (Q91WC9 whole entry, looked up): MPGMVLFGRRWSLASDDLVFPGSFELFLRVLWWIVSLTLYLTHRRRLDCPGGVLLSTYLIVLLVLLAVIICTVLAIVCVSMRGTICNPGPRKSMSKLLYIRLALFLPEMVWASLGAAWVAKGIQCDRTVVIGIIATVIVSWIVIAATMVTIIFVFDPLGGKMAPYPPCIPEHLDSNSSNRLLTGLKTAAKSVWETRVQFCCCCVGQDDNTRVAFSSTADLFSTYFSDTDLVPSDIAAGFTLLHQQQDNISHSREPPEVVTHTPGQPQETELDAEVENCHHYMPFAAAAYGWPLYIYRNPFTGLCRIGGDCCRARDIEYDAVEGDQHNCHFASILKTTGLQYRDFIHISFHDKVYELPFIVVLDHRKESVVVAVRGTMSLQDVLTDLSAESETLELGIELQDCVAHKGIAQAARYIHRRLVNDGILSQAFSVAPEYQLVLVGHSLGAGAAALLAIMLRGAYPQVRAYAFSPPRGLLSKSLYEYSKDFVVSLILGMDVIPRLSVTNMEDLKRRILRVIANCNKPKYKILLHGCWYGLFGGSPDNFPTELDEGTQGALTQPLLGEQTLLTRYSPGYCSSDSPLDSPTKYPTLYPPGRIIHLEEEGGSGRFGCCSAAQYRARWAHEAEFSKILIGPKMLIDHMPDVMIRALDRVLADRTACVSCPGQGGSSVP

[3] = molecular target: Prolyl endopeptidase (Mus musculus) (UniProt Q9QUR6); conditions: serine hydrolase panel, Prep, active compounds read low
Prolyl endopeptidase (Mus musculus), sequence (Q9QUR6 whole entry, looked up): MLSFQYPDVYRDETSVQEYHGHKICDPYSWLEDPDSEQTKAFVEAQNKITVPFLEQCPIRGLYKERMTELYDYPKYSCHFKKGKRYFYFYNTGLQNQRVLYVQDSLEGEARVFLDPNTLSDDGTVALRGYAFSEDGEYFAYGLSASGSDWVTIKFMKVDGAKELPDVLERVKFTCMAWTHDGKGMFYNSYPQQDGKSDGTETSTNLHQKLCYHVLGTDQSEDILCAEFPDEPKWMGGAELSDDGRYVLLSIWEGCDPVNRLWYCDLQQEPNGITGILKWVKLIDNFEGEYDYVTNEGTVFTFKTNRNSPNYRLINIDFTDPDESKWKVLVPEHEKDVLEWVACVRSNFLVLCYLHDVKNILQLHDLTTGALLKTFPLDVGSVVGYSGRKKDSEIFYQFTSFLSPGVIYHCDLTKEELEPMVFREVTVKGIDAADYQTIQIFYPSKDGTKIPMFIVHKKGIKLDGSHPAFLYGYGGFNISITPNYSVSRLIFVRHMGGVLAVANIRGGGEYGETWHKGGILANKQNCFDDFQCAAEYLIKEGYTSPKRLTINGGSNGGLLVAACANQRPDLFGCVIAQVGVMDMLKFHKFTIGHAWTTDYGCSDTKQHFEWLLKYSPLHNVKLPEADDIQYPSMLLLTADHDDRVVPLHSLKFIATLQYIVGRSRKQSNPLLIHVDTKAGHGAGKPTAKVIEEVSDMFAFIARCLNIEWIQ

Dpp7 = conditions: serine hydrolase panel, active compounds read low
Ache = conditions: serine hydrolase panel, active compounds read low
Pla2g6 = conditions: serine hydrolase panel, active compounds read low
Pnpla7 = conditions: serine hydrolase panel, active compounds read low
Iah1 = conditions: serine hydrolase panel, active compounds read low
Pla2g15 = conditions: serine hydrolase panel, active compounds read low
Esd = conditions: serine hydrolase panel, active compounds read low
Prcp = conditions: serine hydrolase panel, active compounds read low
Dpp9 = conditions: serine hydrolase panel, active compounds read low
Parl = conditions: serine hydrolase panel, active compounds read low
Bat5 = conditions: serine hydrolase panel, active compounds read low
Apeh = conditions: serine hydrolase panel, active compounds read low
Abhd12 = conditions: serine hydrolase panel, active compounds read low
Ctsa = conditions: serine hydrolase panel, active compounds read low
Lypla2 = conditions: serine hydrolase panel, active compounds read low
[4] = molecular target: Monoacylglycerol lipase ABHD6 (Mus musculus) (UniProt Q8R2Y0); conditions: serine hydrolase panel, active compounds read low
Monoacylglycerol lipase ABHD6 (Mus musculus), sequence (Q8R2Y0 whole entry, looked up): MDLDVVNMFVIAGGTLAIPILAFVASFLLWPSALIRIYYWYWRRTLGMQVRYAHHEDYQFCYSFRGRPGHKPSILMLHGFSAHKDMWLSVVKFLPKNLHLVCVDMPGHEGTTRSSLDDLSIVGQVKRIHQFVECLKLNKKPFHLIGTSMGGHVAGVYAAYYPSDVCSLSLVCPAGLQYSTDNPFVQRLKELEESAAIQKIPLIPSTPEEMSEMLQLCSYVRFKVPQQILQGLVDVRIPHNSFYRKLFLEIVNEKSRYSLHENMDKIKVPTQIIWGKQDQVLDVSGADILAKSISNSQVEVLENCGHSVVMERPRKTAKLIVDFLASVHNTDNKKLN

[5] = molecular target: Platelet-activating factor acetylhydrolase 2, cytoplasmic (Mus musculus) (UniProt Q8VDG7); conditions: serine hydrolase panel, Pafah2, active compounds read low
Platelet-activating factor acetylhydrolase 2, cytoplasmic (Mus musculus), sequence (Q8VDG7 whole entry, looked up): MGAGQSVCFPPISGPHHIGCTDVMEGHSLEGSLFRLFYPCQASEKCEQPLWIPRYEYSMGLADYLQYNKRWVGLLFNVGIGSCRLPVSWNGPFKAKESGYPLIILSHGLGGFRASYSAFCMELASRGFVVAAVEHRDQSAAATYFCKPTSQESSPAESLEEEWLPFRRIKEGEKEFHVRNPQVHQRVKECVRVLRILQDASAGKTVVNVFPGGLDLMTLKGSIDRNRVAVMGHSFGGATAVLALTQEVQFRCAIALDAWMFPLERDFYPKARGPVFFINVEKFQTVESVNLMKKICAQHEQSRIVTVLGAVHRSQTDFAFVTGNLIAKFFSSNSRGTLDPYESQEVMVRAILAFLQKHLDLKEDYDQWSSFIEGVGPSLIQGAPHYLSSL

Pme1 = conditions: serine hydrolase panel, active compounds read low
Qrsl1 = conditions: serine hydrolase panel, active compounds read low
Rbbp9 = conditions: serine hydrolase panel, active compounds read low
Dpp8 = conditions: serine hydrolase panel, active compounds read low
Abhd13 = conditions: serine hydrolase panel, active compounds read low
Ppt2 = conditions: serine hydrolase panel, active compounds read low
[6] = molecular target: Acyl-protein thioesterase 1 (Mus musculus) (UniProt P97823); conditions: serine hydrolase panel, Lypla1, active compounds read low
Acyl-protein thioesterase 1 (Mus musculus), sequence (P97823 whole entry, looked up): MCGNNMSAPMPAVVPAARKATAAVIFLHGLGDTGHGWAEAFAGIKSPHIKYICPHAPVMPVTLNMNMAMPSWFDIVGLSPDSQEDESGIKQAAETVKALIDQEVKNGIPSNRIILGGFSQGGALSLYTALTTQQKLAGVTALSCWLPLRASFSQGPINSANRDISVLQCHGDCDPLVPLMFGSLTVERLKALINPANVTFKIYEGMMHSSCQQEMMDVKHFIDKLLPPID

Pnpla6 = conditions: serine hydrolase panel, active compounds read low
Fasn = conditions: serine hydrolase panel, active compounds read low
Ddhd2 = conditions: serine hydrolase panel, active compounds read low
Fam108c1 = conditions: serine hydrolase panel, active compounds read low

Structure (SMILES): CC[C@@]1(c2ccc(C)cc2)C(=O)N(C(=O)OC(C)C)N1C(=O)OC(C)C
- SILAC ratio (treated/control) (Acot7): 1.05 (inactive)
- SILAC ratio (treated/control) (Pnpla8): 0.97 (inactive)
- SILAC ratio (treated/control) (Pafah1b2): 1.06 (inactive)
- SILAC ratio (treated/control) (Htra2): 0.98 (inactive)
- SILAC ratio (treated/control) (Prepl): 1.05 (inactive)
- SILAC ratio (treated/control) (Acot9): 1.1 (inactive)
- SILAC ratio (treated/control) (Fam108b1): 1.05 (inactive)
- SILAC ratio (treated/control) (Fam108a): 1.16 (inactive)
- SILAC ratio (treated/control) (Pgap1): 0.92 (inactive)
- SILAC ratio (treated/control) (Lipe): 1.13 (inactive)
- SILAC ratio (treated/control) (Sec23ip): 1.17 (inactive)
- SILAC ratio (treated/control) (Acot2): 1 (inactive)
- SILAC ratio (treated/control) (Abhd11): 1 (inactive)
- SILAC ratio (treated/control) (Nceh1): 1.03 (inactive)
- SILAC ratio (treated/control) (Serhl): 0.9 (inactive)
- SILAC ratio (treated/control) (Lyplal1): 1.06 (inactive)
- SILAC ratio (treated/control) (Lactb): 0.85 (inactive)
- SILAC ratio (treated/control) [1]: 0.02
- SILAC ratio (treated/control) (Faah): 0.94 (inactive)
- SILAC ratio (treated/control) (Pafah1b3): 1.06 (inactive)
- SILAC ratio (treated/control) [2]: 0.96 (inactive)
- SILAC ratio (treated/control) [3]: 1.01 (inactive)
- SILAC ratio (treated/control) (Dpp7): 0.97 (inactive)
- SILAC ratio (treated/control) (Ache): 0.9 (inactive)
- SILAC ratio (treated/control) (Pla2g6): 1.06 (inactive)
- SILAC ratio (treated/control) (Pnpla7): 1.01 (inactive)
- SILAC ratio (treated/control) (Iah1): 0.95 (inactive)
- SILAC ratio (treated/control) (Pla2g15): 1 (inactive)
- SILAC ratio (treated/control) (Esd): 1.04 (inactive)
- SILAC ratio (treated/control) (Prcp): 0.94 (inactive)
- SILAC ratio (treated/control) (Dpp9): 1.08 (inactive)
- SILAC ratio (treated/control) (Parl): 0.96 (inactive)
- SILAC ratio (treated/control) (Bat5): 1.02 (inactive)
- SILAC ratio (treated/control) (Apeh): 1.07 (inactive)
- SILAC ratio (treated/control) (Abhd12): 0.9 (inactive)
- SILAC ratio (treated/control) (Ctsa): 0.81 (inactive)
- SILAC ratio (treated/control) (Lypla2): 1.07 (inactive)
- SILAC ratio (treated/control) [4]: 0.87 (inactive)
- SILAC ratio (treated/control) [5]: 1.06 (inactive)
- SILAC ratio (treated/control) (Pme1): 1.06 (inactive)
- SILAC ratio (treated/control) (Qrsl1): 0.96 (inactive)
- SILAC ratio (treated/control) (Rbbp9): 1.07 (inactive)
- SILAC ratio (treated/control) (Dpp8): 1.48 (inactive)
- SILAC ratio (treated/control) (Abhd13): 0.84 (inactive)
- SILAC ratio (treated/control) (Ppt2): 1.04 (inactive)
- SILAC ratio (treated/control) [6]: 1.14 (inactive)
- SILAC ratio (treated/control) (Pnpla6): 1.32 (inactive)
- SILAC ratio (treated/control) (Fasn): 1.1 (inactive)
- SILAC ratio (treated/control) (Ddhd2): 0.99 (inactive)
- SILAC ratio (treated/control) (Fam108c1): 0.93 (inactive)
